Source: US11072601B2, “μ-opioid receptor agonist and preparation method therefor and use thereof in field of medicine” (SHANGHAI SYNERGY PHARMACEUTICAL SCIENCES CO., LTD., priority 2017, dated 2021)

Tests used:
[1] = target: T1, cAMP pathway of MOR receptor (Homo sapiens, UniProt P35372); experiment: cell-based; details: cAMP Hunter HEK293 cells, forskolin-induced cAMP; read-out: EC50 of cAMP levels affected by agonistic effect on MOR
T1 construct: host or cells: HEK293 (cAMP Hunter cell line)

[2] = target: T2, β-arrestin signaling pathway of MOR (Homo sapiens, UniProt P35372); experiment: cell-based; details: PathHunter HEK293 cells, relative to endorphin MAX control
T2 construct: host or cells: HEK293 (PathHunter cell line)
T2 sequence (P35372 whole entry): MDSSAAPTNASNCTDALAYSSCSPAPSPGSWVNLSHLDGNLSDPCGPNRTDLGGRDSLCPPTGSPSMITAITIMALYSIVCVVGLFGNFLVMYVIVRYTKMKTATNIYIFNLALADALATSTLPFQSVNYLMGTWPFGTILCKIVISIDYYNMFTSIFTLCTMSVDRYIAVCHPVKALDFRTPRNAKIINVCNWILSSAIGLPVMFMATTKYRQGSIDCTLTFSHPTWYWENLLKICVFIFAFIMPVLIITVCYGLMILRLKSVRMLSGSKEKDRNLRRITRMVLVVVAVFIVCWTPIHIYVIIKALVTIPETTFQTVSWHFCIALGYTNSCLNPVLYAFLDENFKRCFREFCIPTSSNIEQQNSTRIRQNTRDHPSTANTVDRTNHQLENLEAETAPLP

[3] = Pharmacokinetic test in rats, intravenous; assay type: in vivo; details: male, SD, rat, plasma, intravenous 1 mg/kg; for AUC: read-out: curve area (AUC); for half-life: read-out: half life (T½) (converted); for Cmax: read-out: plasma concentration (Cmax)
Text: 8-week-old male SD rats weighing 200-300 g were used as experimental animals, and LC/MS/MS method was used to determine the drug concentration in plasma at different times after the administration of the compound of Example H01, the compound of Example H04, the compound of Example H05, the compound of Example H07, the compound of Example H16, the compound of Example H17, the compound of Example H18, the compound of Example H21, and the compound of Example H24. The pharmacokinetic behavior of the compounds of the present invention in rats was studied, and its pharmacokinetic characteristics were evaluated.
A certain amount of the compounds were weighed, and dissolved in ethanol/castor oil/water=10/10/80 to form a uniform solution.
The above compounds were administered intravenously to rats at a dose of 1 mg/kg, and 0.2 ml of blood was collected from the orbit at 0.083, 0.25, 0.5, 1.0, 2.0, 4.0, 6.0, 8.0, 12.0, 24.0 hours before and after administration, and placed in an anticoagulant tube, the plasma was separated by centrifugation at 6,000 rpm for 10 minutes at 4° C., and stored at −80° C.
50 μL of plasma was taken at different times, 150 μL of acetonitrile solution containing internal standard tolbutamide (200 ng/mL) was added, the system was mixed and shaked for 5 minutes, 12000 rpm, centrifuged for 5 minutes, 100 μL of supernatant was removed, and then mixed with 200 μL of water, then the sample was loaded for analysis. The internal standard tolbutamide solid (Aladdin, T129578) powder was dissolved in DMSO to prepare into a 1 mg/mL stock solution. The stock solution was diluted with 100% acetonitrile to obtain a solution of 200 ng/mL as a protein precipitator.
The liquid chromatography system was an LC-20AD UFLC high performance liquid chromatography system (Shimadzu, LC-20AD). The mass spectrometry system was an AB Sciex API4000 triple quadrupole mass spectrometer equipped with an electrospray ionization source (ESI) (Applied Biosystems, Canada). The software used to control the liquid-mass coanalyzer and quantitative analysis was Analyst 1.6 (Applied Biosystems, Canada), and the pharmacokinetic parameters were analyzed using WinNonlin (version 5.2, Pharsight, Mountain View, Calif.) non-compartment model.
Liquid chromatographic separation was performed using AQ-C18 column (50×2.1 mm, internal diameter of […]). The column temperature was maintained at room temperature.
The compound to be tested was dissolved in DMSO to prepare a stock solution with a concentration of 1 mg/mL, and diluted with 70% acetonitrile to obtain a series of standard working solutions with concentrations of 30, 10, 3, 1, 0.3, 0.1, 0.03, and 0.01. μg/mL, and a series of standard quality control solutions (24, 8 and 0.03 μg/mL). 5 μL of standard solution and 45 μL of blank plasma matrix were mixed uniformity to obtain standard solutions (3000, 1000, 300, 100, 30, 10, 3, and 1 ng/mL) and quality control standards (plasma samples: 2400, 800, 80, and 3 ng/mL) at each concentration point of the standard curve.

T1 sequence (P35372 whole entry): as above

| Structure (SMILES) | EC50 [1] | Emax [2] | AUC [3] | half-life [3] | Cmax [3] |
| --- | --- | --- | --- | --- | --- |
| Cc1c(Cl)cccc1CNCCC1(c2ccccn2)CCOC2(CCCC2)C1 (stereo not drawn) [Example H04, (3-chloro-2-methylbenzyl)-[2-(9-(pyridin-2-yl)-6-oxaspiro[4.5]decan-9-yl)ethyl]amine] | 4.36 nM | 6.12% | 494 ± 34 ng·h/mL | 2.92 ± 0.02 h | 378 ± 17.5 ng/mL |
| FC(F)Oc1ccccc1CNCCC1(c2ccccn2)CCOC2(CCCC2)C1 (stereo not drawn) [Example H16, (2-difluoromethoxybenzyl)-[2-(9-(pyridin-2-yl)-6-oxaspiro[4.5]decan-9-yl)ethyl]amine] | 1.36 nM | 3.12% | 1190 ± 54 ng·h/mL | 5.3 ± 0.02 h | 820 ± 37.5 ng/mL |
| FC(F)(F)Oc1ccc(Cl)cc1CNCCC1(c2ccccn2)CCOC2(CCCC2)C1 (stereo not drawn) [Example H17, (5-chloro-2-trifluoromethoxybenzyl)-[2-(9-(pyridin-2-yl)-6-oxaspiro[4.5]decan-9-yl)ethyl]amine] | 1.89 nM | 1.78% | 482 ± 31.8 ng·h/mL | 1.45 ± 0.15 h | 388 ± 23.3 ng/mL |
| FC(F)Oc1ccsc1CNCCC1(c2ccccn2)CCOC2(CCCC2)C1 (stereo not drawn) [Example H18, ((3-difluoromethoxythiophen-2-yl)methyl)-[2-(9-(pyridin-2-yl)-6-oxaspiro[4.5]decan-9-yl)ethyl]a mine] | 2.35 nM | 0.48% | 582 ± 11.8 ng·h/mL | 3.45 ± 0.55 h | 483 ± 23.3 ng/mL |
| Fc1ccc(C2(CCNCc3ccccc3OC(F)(F)F)CCOC3(CCCC3)C2)nc1 (stereo not drawn) [Example H21, {2-[9-(5-fluoro-pyridin-2-yl)-6-oxa-spiro[4.5]decan-9-yl]-ethyl}-(2-(trifluoromethoxy)-phenmethyl)-amine] | 2.57 nM | 0.08% | 382 ± 10.8 ng·h/mL | 2.05 ± 0.25 h | 283 ± 13.3 ng/mL |
| CNc1ccsc1C(=O)NCCC1(c2ccccn2)CCOC2(CCCC2)C1 (stereo not drawn) [Example H24, 3-methylamino-thiophene-2-carboxylic acid [2-(9-pyridin-2-yl-6-oxa-spiro[4.5]decan-9-yl)-ethyl]-amide] | 3.74 nM | 2.76% | 682 ± 21 ng·h/mL | 3.05 ± 0.15 h | 583 ± 23.3 ng/mL |
